Results on four sequences are retold here after US20070128217A1 (priority 2003, published 2007).

Assay [1] concerns control sera (pooled serum of ten healthy LUMC hospital workers; commercial negative donor pooled serum from the Dutch bloodbank). The format is binding, human. More on the design: Binding of Control serum LUMC to linear peptides / Binding of Control serum Blood-bank to linear peptides / Binding of Control serum LUMC to looped peptides / Binding of Control Serum Blood-Bank to Looped peptides / Binding of Control serum LUMC to linear peptides of the protein M of SARS-CoV Urbani / Binding of Control serum Blood-bank to linear peptides of the protein M of SARS-CoV Urbani / Binding of Control serum LUMC to looped peptides of the protein M of SARS-CoV Urbani / Binding of Control Serum Blood-Bank to Looped peptides of the protein M of SARS-CoV Urbani: unit not given here.

Assay [2] concerns rabbit serum obtained by immunizing a rabbit with the SARS-CoV strain Frankfurt 1. It is filed as binding. More on the design: Binding of a rabbit serum to linear peptides / Binding of a rabbit serum to looped peptides / Rabbit serum linear peptides / Rabbit serum looped peptides / Binding of a rabbit serum to linear peptides of protein N of SARS-CoV Urbani (Rabbit serum linear peptides) / Binding of a rabbit serum to looped/cyclic peptides of protein N of SARS-CoV Urbani (Rabbit serum looped peptides): unit not given here.

Assay [3] concerns antibodies in sera from SARS patients (sera 1a, 1b, 2, 6, 37, 62, London, SARS-yellow, SARS-green). The format is binding, human. More on the design: Binding of serum 6 to linear peptides of protein X1 of SARS-CoV Urbani / Binding of serum 37 to linear peptides of protein X1 of SARS-CoV Urbani / Binding of serum 6 to looped/cyclic peptide (PEPSCAN-ELISA) / Binding of serum 37 to looped/cyclic peptide (PEPSCAN-ELISA) / Binding of serum 37 to looped/cyclic peptides of protein X1 of SARS-CoV Urbani / Binding of serum 6 to linear peptides of protein X2 / Binding of serum 37 to linear peptides of protein X2 / Binding of serum 37 to looped/cyclic peptides of protein X2 of SARS-CoV Urbani / Binding of serum 6 to linear peptides of protein M of SARS-CoV Urbani / Binding of serum 37 to linear peptides of protein M of SARS-CoV Urbani / Binding of serum 6 to looped/cyclic peptides of protein M of SARS-CoV Urbani / Binding of serum 37 to looped/cyclic peptides of protein M of SARS-CoV Urbani / Binding of serum 6 to linear peptides of protein X3 of SARS-CoV Urbani / Binding of serum 37 to linear peptides of protein X3 of SARS-CoV Urbani / Binding of serum 37 to looped/cyclic peptides of protein X3 of SARS-CoV Urbani / Binding of serum 6 to linear peptides of protein X4 of SARS-CoV Urbani / Binding of serum 37 to linear peptides of protein X4 of SARS-CoV Urbani / Binding of serum 37 to looped/cyclic peptides of protein X4 of SARS-CoV Urbani / Binding of serum 6 to linear peptides of protein X5 of SARS-CoV Urbani / Binding of serum 37 to linear peptides of protein X5 of SARS-CoV Urbani / Binding of serum 37 to looped/cyclic peptides of protein X5 of SARS-CoV Urbani / Binding of serum 6 to linear peptides of protein N of SARS-CoV Urbani / Binding of serum 37 to linear peptides of protein N of SARS-CoV Urbani / Binding of serum 6 to linear peptide (PEPSCAN-ELISA) / Binding of serum 1a to looped/cyclic peptides of protein N of SARS-CoV Urbani / Binding of serum 1b to looped/cyclic peptides of protein N of SARS-CoV Urbani / Binding of serum 2 to looped/cyclic peptides of protein N of SARS-CoV Urbani / Binding of serum 6 to looped/cyclic peptides of protein N of SARS-CoV Urbani / Binding of serum 37 to looped/cyclic peptides of protein N of SARS-CoV Urbani / Binding of serum 62 to looped/cyclic peptides of protein N of SARS-CoV Urbani / Binding of serum London to looped/cyclic peptides of protein N of SARS-CoV Urbani / Binding of serum SARS-green to looped/cyclic peptides of protein N of SARS-CoV Urbani: unit not given here.

Regarding LFLTLIVFTSCELYH, in assay [1], the “Binding of Control Serum Blood-Bank to Looped peptides” value turned out to be 0.9, the “Binding of Control serum Blood-bank to linear peptides” value is given as 0.7, the “Binding of Control serum LUMC to linear peptides” value was found to be 0.7 and the “Binding of Control serum LUMC to looped peptides” value came to 0.9. In addition, in assay [2], the “Rabbit serum linear peptides” value was 0.7 and the “Rabbit serum looped peptides” value is 0.4. In addition, in assay [3], the “Binding of serum 1a to linear peptides of protein X4 of SARS-CoV Urbani” value was 0.7, the “Binding of serum 1a to looped/cyclic peptides of protein X4 of SARS-CoV Urbani” value was determined as 0.9, the “Binding of serum 1b to linear peptides of protein X4 of SARS-CoV Urbani” value stood at 0.7 and the “Binding of serum 1b to looped/cyclic peptides of protein X4 of SARS-CoV Urbani” value is given as 0.8. For the same sequence, in assay [3], the “Binding of serum 2 to linear peptides of protein X4 of SARS-CoV Urbani” value amounted to 0.5, the “Binding of serum 2 to looped/cyclic peptides of protein X4 of SARS-CoV Urbani” value stood at 0.8, the “Binding of serum 6 to linear peptides of protein X4 of SARS-CoV Urbani” value came out at 0.5 and the “Binding of serum 6 to looped/cyclic peptides of protein X4 of SARS-CoV Urbani” value was determined as 0.7. In addition, in assay [3], the “Binding of serum 37 to linear peptides of protein X4 of SARS-CoV Urbani” value was determined as 0.7, the “Binding of serum 37 to looped/cyclic peptides of protein X4 of SARS-CoV Urbani” value was determined as 0.9, the “Binding of serum 62 to linear peptides of protein X4 of SARS-CoV Urbani” value stood at 0.7 and the “Binding of serum 62 to looped/cyclic peptides of protein X4 of SARS-CoV Urbani” value was 0.9. Moreover, in assay [3], the “Binding of serum London to linear peptides of protein X4 of SARS-CoV Urbani” value came out at 0.6, the “Binding of serum London to looped/cyclic peptides of protein X4 of SARS-CoV Urbani” value is 0.3, the “Binding of serum SARS-green to linear peptides of protein X4 of SARS-CoV Urbani” value amounted to 0.7 and the “Binding of serum SARS-green to looped/cyclic peptides of protein X4 of SARS-CoV Urbani” value is recorded as 0.7. In assay [3], the “Binding of serum SARS-yellow to linear peptides of protein X4 of SARS-CoV Urbani” value was found to be 0.6 and the “Binding of serum SARS-yellow to looped/cyclic peptides of protein X4 of SARS-CoV Urbani” value was determined as 0.6.

With LGKVLPFHRWHTMVQ, in assay [1], the “Binding of Control Serum Blood-Bank to Looped peptides” value came out at 0.4, the “Binding of Control serum Blood-bank to linear peptides” value is on record as 0.8, the “Binding of Control serum LUMC to linear peptides” value was 0.5 and the “Binding of Control serum LUMC to looped peptides” value is listed as 0.4. In assay [2], the “Rabbit serum linear peptides” value was 0.5 and the “Rabbit serum looped peptides” value is 0.3. In assay [3], the “Binding of serum 1a to linear peptides of protein X5 of SARS-CoV Urbani” value came to 0.7, the “Binding of serum 1a to looped/cyclic peptides of protein X5 of SARS-CoV Urbani” value came out at 0.6, the “Binding of serum 1b to linear peptides of protein X5 of SARS-CoV Urbani” value stood at 0.4 and the “Binding of serum 1b to looped/cyclic peptides of protein X5 of SARS-CoV Urbani” value is given as 0.3. In addition, in assay [3], the “Binding of serum 2 to linear peptides of protein X5 of SARS-CoV Urbani” value turned out to be 0.6, the “Binding of serum 2 to looped/cyclic peptides of protein X5 of SARS-CoV Urbani” value is given as 0.2, the “Binding of serum 6 to linear peptides of protein X5 of SARS-CoV Urbani” value was 0.5 and the “Binding of serum 6 to looped/cyclic peptides of protein X5 of SARS-CoV Urbani” value is listed as 0.3. Moreover, in assay [3], the “Binding of serum 37 to linear peptides of protein X5 of SARS-CoV Urbani” value is listed as 0.6, the “Binding of serum 37 to looped/cyclic peptides of protein X5 of SARS-CoV Urbani” value is 0.5, the “Binding of serum 62 to linear peptides of protein X5 of SARS-CoV Urbani” value is 0.6 and the “Binding of serum 62 to looped/cyclic peptides of protein X5 of SARS-CoV Urbani” value stood at 0.3. Besides, in assay [3], the “Binding of serum London to linear peptides of protein X5 of SARS-CoV Urbani” value is listed as 0.6, the “Binding of serum London to looped/cyclic peptides of protein X5 of SARS-CoV Urbani” value is 0.2, the “Binding of serum SARS-green to linear peptides of protein X5 of SARS-CoV Urbani” value came out at 0.4 and the “Binding of serum SARS-green to looped/cyclic peptides of protein X5 of SARS-CoV Urbani” value was found to be 0.2. In assay [3], the “Binding of serum SARS-yellow to linear peptides of protein X5 of SARS-CoV Urbani” value came to 0.2 and the “Binding of serum SARS-yellow to looped/cyclic peptides of protein X5 of SARS-CoV Urbani” value was found to be 0.2.

In the case of LHKLLQTLVLKMLHS, in assay [1], the “Binding of Control Serum Blood-Bank to Looped peptides” value is given as 0.8, the “Binding of Control serum Blood-bank to linear peptides” value amounted to 0.5, the “Binding of Control serum LUMC to linear peptides” value is given as 0.3 and the “Binding of Control serum LUMC to looped peptides” value is on record as 0.7. Moreover, in assay [2], the “Binding of a rabbit serum to linear peptides” value was 0.2 and the “Binding of a rabbit serum to looped peptides” value is 0.4. Moreover, in assay [3], the “Binding of serum 1a to linear peptides of protein X2” value worked out at 0.6, the “Binding of serum 1a to looped/cyclic peptides of protein X2 of SARS-CoV Urbani” value was determined as 0.6, the “Binding of serum 1b to linear peptides of protein X2” value was found to be 0.0 and the “Binding of serum 1b to looped/cyclic peptides of protein X2 of SARS-CoV Urbani” value came to 0.5. In assay [3], the “Binding of serum 2 to linear peptides of protein X2” value was 0.4, the “Binding of serum 2 to looped/cyclic peptides of protein X2 of SARS-CoV Urbani” value was found to be 0.4, the “Binding of serum 6 to linear peptides of protein X2” value turned out to be 0.3 and the “Binding of serum 6 to looped/cyclic peptides of protein X2 of SARS-CoV Urbani” value is 0.6. In assay [3], the “Binding of serum 37 to linear peptides of protein X2” value amounted to 0.4, the “Binding of serum 37 to looped/cyclic peptides of protein X2 of SARS-CoV Urbani” value is reported as 0.4, the “Binding of serum 62 to linear peptides of protein X2” value worked out at 0.5 and the “Binding of serum 62 to looped/cyclic peptides of protein X2 of SARS-CoV Urbani” value came out at 0.6. Further, in assay [3], the “Binding of serum London to linear peptides of protein X2” value worked out at 0.4, the “Binding of serum London to looped/cyclic peptides of protein X2 of SARS-CoV Urbani” value is listed as 1.0, the “Binding of serum SARS-green to linear peptides of protein X2” value was found to be 0.6 and the “Binding of serum SARS-green to looped/cyclic peptides of protein X2 of SARS-CoV Urbani” value is reported as 0.4. Moreover, in assay [3], the “Binding of serum SARS-yellow to linear peptides of protein X2” value is 0.3 and the “Binding of serum SARS-yellow to looped/cyclic peptides of protein X2 of SARS-CoV Urbani” value is 0.7.

As for LHSSSLTSLLKTHRM, in assay [1], the “Binding of Control Serum Blood-Bank to Looped peptides” value was 0.4, the “Binding of Control serum Blood-bank to linear peptides” value is 0.7, the “Binding of Control serum LUMC to linear peptides” value is 0.4 and the “Binding of Control serum LUMC to looped peptides” value was determined as 0.4. Also, in assay [2], the “Binding of a rabbit serum to linear peptides” value is listed as 0.2 and the “Binding of a rabbit serum to looped peptides” value came out at 0.4. Also, in assay [3], the “Binding of serum 1a to linear peptides of protein X2” value came to 0.6, the “Binding of serum 1a to looped/cyclic peptides of protein X2 of SARS-CoV Urbani” value is listed as 0.4, the “Binding of serum 1b to linear peptides of protein X2” value stood at 0.5 and the “Binding of serum 1b to looped/cyclic peptides of protein X2 of SARS-CoV Urbani” value is reported as 0.4. Further, in assay [3], the “Binding of serum 2 to linear peptides of protein X2” value is recorded as 0.4, the “Binding of serum 2 to looped/cyclic peptides of protein X2 of SARS-CoV Urbani” value stood at 0.3, the “Binding of serum 6 to linear peptides of protein X2” value amounted to 0.5 and the “Binding of serum 6 to looped/cyclic peptides of protein X2 of SARS-CoV Urbani” value stood at 0.2. In assay [3], the “Binding of serum 37 to linear peptides of protein X2” value came to 0.5, the “Binding of serum 37 to looped/cyclic peptides of protein X2 of SARS-CoV Urbani” value came to 0.3, the “Binding of serum 62 to linear peptides of protein X2” value is on record as 0.5 and the “Binding of serum 62 to looped/cyclic peptides of protein X2 of SARS-CoV Urbani” value was 0.4. Moreover, in assay [3], the “Binding of serum London to linear peptides of protein X2” value was determined as 0.6, the “Binding of serum London to looped/cyclic peptides of protein X2 of SARS-CoV Urbani” value was found to be 0.2, the “Binding of serum SARS-green to linear peptides of protein X2” value came out at 0.6 and the “Binding of serum SARS-green to looped/cyclic peptides of protein X2 of SARS-CoV Urbani” value stood at 0.3. In addition, in assay [3], the “Binding of serum SARS-yellow to linear peptides of protein X2” value was determined as 0.6 and the “Binding of serum SARS-yellow to looped/cyclic peptides of protein X2 of SARS-CoV Urbani” value was determined as 0.3.
